Laboratory results as given in the supplement of paper PMC10307832.

Tests used:
Test in all cases: relative viability (nuclei count vs DMSO), 5 days (fraction); higher = more cells survive
Metformin + Vorinostat = compound: CN(C)C(=N)NC(=N)N [Metformin] + O=C(CCCCCCC(=O)Nc1ccccc1)NO [Vorinostat] (partner 1 µM)
In short: (§1)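 Lung cancer cell lines in 1536-well plates got either a single drug or a fixed anchor-drug dose together with five library-drug doses (not always all listed) in √10 steps, by pin tool, on the day after seeding. Nuclei were counted after 5 days, and relative viability is the treated-to-vehicle ratio of nuclei counts. Values are medians of duplicate plates.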

Apatinib + Linsitinib = compound: N#CC1(c2ccc(NC(=O)c3cccnc3NCc3ccncc3)cc2)CCCC1 [Apatinib] + C[C@]1(O)C[C@@H](c2nc(-c3ccc4ccc(-c5ccccc5)nc4c3)c3c(N)nccn32)C1 [Linsitinib] (partner 1 µM)
In short: as §1

Metformin + OSI-027 = compound: CN(C)C(=N)NC(=N)N [Metformin] + COc1cccc2cc(-c3nc([C@H]4CC[C@H](C(=O)O)CC4)n4ncnc(N)c34)[nH]c12 [OSI-027] (partner 0.5 µM)
In short: as §1

Apatinib + Navitoclax = compound: N#CC1(c2ccc(NC(=O)c3cccnc3NCc3ccncc3)cc2)CCCC1 [Apatinib] + CC1(C)CCC(c2ccc(Cl)cc2)=C(CN2CCN(c3ccc(C(=O)NS(=O)(=O)c4ccc(N[C@H](CCN5CCOCC5)CSc5ccccc5)c(S(=O)(=O)C(F)(F)F)c4)cc3)CC2)C1 [Navitoclax] (partner 0.5 µM)
In short: as §1

Cell Line	relative viability (Metformin + Vorinostat; first compound 10 µM)	relative viability (Metformin + Vorinostat; first compound 31.62 µM)	relative viability (Metformin + Vorinostat; first compound 100 µM)	relative viability (Metformin + Vorinostat; first compound 316.23 µM)	relative viability (Metformin + Vorinostat; first compound 1000 µM)	relative viability (Apatinib + Linsitinib; first compound 0.08 µM)	relative viability (Apatinib + Linsitinib; first compound 0.253 µM)	relative viability (Apatinib + Linsitinib; first compound 0.8 µM)	relative viability (Apatinib + Linsitinib; first compound 2.53 µM)	relative viability (Apatinib + Linsitinib; first compound 8 µM)	relative viability (Metformin + OSI-027; first compound 10 µM)	relative viability (Metformin + OSI-027; first compound 31.62 µM)	relative viability (Metformin + OSI-027; first compound 100 µM)	relative viability (Metformin + OSI-027; first compound 316.23 µM)	relative viability (Metformin + OSI-027; first compound 1000 µM)	relative viability (Apatinib + Navitoclax; first compound 0.08 µM)	relative viability (Apatinib + Navitoclax; first compound 0.253 µM)	relative viability (Apatinib + Navitoclax; first compound 0.8 µM)	relative viability (Apatinib + Navitoclax; first compound 2.53 µM)	relative viability (Apatinib + Navitoclax; first compound 8 µM)
NCI-H23	0.618	0.574	0.653	0.561	0.848	0.694	0.652	0.501	0.568	0.542	0.594	0.665	0.559	0.523	0.664	1.01	0.931	0.742	0.725	0.794
NCI-H2087	0.595	0.657	0.637	0.567	0.671	1.07	0.925	0.907	0.924	0.716		0.753	0.73	0.536	0.482	1.06	1.05	0.847	0.963	0.782
PC-14	0.618	0.598	0.567	0.415	0.533	0.988	1.03	0.86	0.95	1.02	0.648	0.929	0.657	0.607	0.574	1.04	0.968	0.967	0.986	0.937
NCI-H596	0.691	0.854	0.674	0.596	0.784	1.23	1.05	1.02	0.994	0.795	1.04	0.84	0.85	0.636	0.988	1.03	1.11	0.927	0.945	0.857
LOU-NH91	0.86	0.852	0.839	0.925	0.833	0.94	0.916	0.717	0.845	0.777	0.711	0.71	0.644	0.775	0.767	0.692	0.744	0.517	0.565	0.58
LU99A	0.417	0.579	0.411	0.397	0.479	0.589	0.549	0.515	0.457	0.47	0.302	0.321	0.3	0.309	0.289	0.876	0.851	0.745	0.721	0.732
NCI-H1355	0.597	0.522	0.632	0.589	0.609	0.97	0.863	0.802	0.685	0.666	0.434	0.373	0.396	0.416	0.406	0.944	0.929	0.848	0.815	0.65
NCI-H2023	0.292	0.712	0.354	0.496	0.38	0.816	0.886	0.615	0.683	0.607	0.421	0.558	0.379	0.397	0.378	0.988	1.01	0.954	0.925	0.895
NCI-H2347	0.602	0.619	0.71	0.575	0.599	1	0.888	1.01	0.932	0.9	0.416	0.486		0.466	0.415	0.783	0.698	0.948	0.728	0.74
LC-2-ad		0.64	0.657	0.596	0.803	0.863	0.831	0.864	0.652	0.507		0.69	0.693	0.531	0.588	0.414	0.457	0.387	0.287	0.235
NCI-H1793	0.943	0.832	0.727	0.662	1.02	0.974	0.931	0.716	0.599	0.685	0.395		0.315	0.238	0.253	0.343	0.712	0.441	0.29	0.283
NCI-H1666	0.979	0.946	1.01	1.06	1.1	0.861	0.99	0.92	0.917	0.724	0.97	0.974	1.05	0.99	0.939	1.02	0.963	1.07	0.815	1.04
SK-LU-1	0.723	0.645	0.759	0.667	0.766	1.1	1.3	1.04	0.809	0.787	0.32	0.389	0.354	0.318	0.299	0.965	1.35	0.705	0.638	0.631
HOP-62	0.425	0.705	0.699	0.456	0.738	1.19		0.896	0.821	0.786	0.827	0.903	0.992	0.678	0.861	1.04	1.01	1.01	0.859	0.878
CAL-12T	0.729	0.742	0.585	0.691	0.743	0.875	0.879	0.819	0.762	0.654	0.678	0.94	0.581	0.39	0.605	1.26	1.23	1.1	1.17	1.03
BEN	0.56	0.728	0.64	0.494	0.625	0.864	0.933	0.88	0.81	0.699	0.271	0.275	0.3	0.314	0.263	0.0553	0.0606	0.0462	0.0661	0.0637
HCC-366	0.201	0.431	0.282	0.326	0.472	0.899	0.732	0.571	0.678	0.616	0.757	0.967	0.991	0.808	1.28	1.1	1.08	1.04	0.961	1.01

Cell Line	relative viability (Metformin + Vorinostat; first compound 10 µM)	relative viability (Metformin + Vorinostat; first compound 31.62 µM)	relative viability (Metformin + Vorinostat; first compound 100 µM)	relative viability (Metformin + Vorinostat; first compound 316.23 µM)	relative viability (Metformin + Vorinostat; first compound 1000 µM)	relative viability (Apatinib + Linsitinib; first compound 0.08 µM)	relative viability (Apatinib + Linsitinib; first compound 0.253 µM)	relative viability (Apatinib + Linsitinib; first compound 0.8 µM)	relative viability (Apatinib + Linsitinib; first compound 2.53 µM)	relative viability (Apatinib + Linsitinib; first compound 8 µM)	relative viability (Metformin + OSI-027; first compound 10 µM)	relative viability (Metformin + OSI-027; first compound 31.62 µM)	relative viability (Metformin + OSI-027; first compound 100 µM)	relative viability (Metformin + OSI-027; first compound 316.23 µM)	relative viability (Metformin + OSI-027; first compound 1000 µM)	relative viability (Apatinib + Navitoclax; first compound 0.08 µM)	relative viability (Apatinib + Navitoclax; first compound 0.253 µM)	relative viability (Apatinib + Navitoclax; first compound 0.8 µM)	relative viability (Apatinib + Navitoclax; first compound 2.53 µM)	relative viability (Apatinib + Navitoclax; first compound 8 µM)
EMC-BAC-2	0.474	0.417		0.492	0.37	0.815	0.816	0.766	0.72	0.78	0.419	0.397	0.365	0.399	0.356	1.2	1.13	1.14	1.07	0.974
COR-L 105	0.795	0.807	0.895	0.848	0.495	0.994	1.15	0.705	0.985	0.676	0.736	0.895	0.736	0.773	0.521	0.665	1.03	0.695	0.841	0.636
A-427	0.848	0.863	0.827	0.819	0.776	1.1	1.06	1.07	1.11	1.09	0.45	0.493	0.44	0.458	0.492	0.929	0.911	0.934	0.853	0.478
NCI-H520	0.748	0.757	0.84	0.714	0.763	1.12	0.948	0.842	0.876	0.878	0.306	0.35	0.322	0.28	0.348	1.21	1.14	0.982	1.02	0.857
NCI-H3122	0.459	0.942	0.87	0.807	0.775	0.996	1.03	0.983	1.05	0.911	0.672	0.851	0.574	0.419	0.339	1.07	0.965	1.01	1.08	1.04
UMC-11	0.471	0.452	0.483	0.377	0.406	0.999	1.01	0.979	0.911	0.93	0.594	0.549	0.539	0.426	0.505	0.343	0.335	0.319	0.247	0.266
PC-3 [JPC-3]	0.737	0.664		0.85	0.554	0.98	0.961	0.885	0.797	0.894	0.599	0.635	0.638	0.615	0.722	0.785	0.764	0.746	0.816	0.737
EKVX		0.67	0.655	0.644	0.762	1.04	1.09	0.985	0.862	0.795	0.623	0.77	0.645		0.681	0.882	0.946	0.98	0.888	0.826
HCC-827	0.483	0.84	1.02	0.776	0.943	0.995	0.937	1.01	0.956	0.737		0.714	0.704	0.586	0.73	1.07	1.06	0.956	0.998	0.781
HCC-44		1.02	1.09	1.06	1.03	0.673	0.759	0.66	0.711	0.592	1.14	0.921	0.696	0.632	0.491	0.961	1.05	0.979	0.946	0.892
NCI-H838	0.645	0.586	0.675	0.569	0.654	1.14	1.18	0.962	0.985	1.04	0.544	0.624	0.563	0.508	0.515	1.25	1.27	1.09	1.12	1.05
NCI-H2126	0.739	0.704	0.752	0.694	0.872	0.733	0.69	0.675	0.631	0.652	0.682	0.725	0.8	0.787	0.656	0.9	0.859	0.826	0.811	0.802
COR-L23	0.312	0.304	0.406	0.288	0.362	1.09	0.927	0.931	0.746	0.713	0.644	0.68	0.571	0.605	0.782	1.05	1.02	0.871	0.885	0.827
NCI-H727	1.1	1.16	1.13		1.13	0.33	0.33	0.415	0.348	0.36	0.543	0.726	0.736	0.545	0.48	0.465	0.552	0.384	0.425	0.531
LXF-289	0.65	0.661	0.712	0.66	0.729	0.974	0.964	0.96	0.941	0.896	0.764	0.737	0.738	0.721	0.735	0.948	0.925	0.95	0.82	0.882
HCC-15	0.84	0.849	0.959	0.77	0.95	1.02	0.937	0.813	0.878	0.878		0.812	0.655	0.586	0.678	0.733	0.718	0.681	0.608	0.653
